Results: the supplement of paper PMC10307832

Assays:
Assay in all cases: relative viability (nuclei count vs DMSO), 5 days (fraction); higher = more cells survive
NCI-H1355 = test system: NCI-H1355
Method in brief: (§1)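 Relative viability equals treated-well nuclei counts divided by vehicle-well nuclei counts. Counts came from 4× images of lung cancer cell lines grown in 1536-well plates for 5 days after pin-tool dosing on the day after seeding. Dosing used one drug alone or a fixed anchor-drug dose plus five library-drug doses (not always all listed) in √10 steps, and values are medians of duplicate plates.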

LCLC-103H = test system: LCLC-103H
Method in brief: as §1

HCC-827 = test system: HCC-827
Method in brief: as §1

LCLC-97TM1 = test system: LCLC-97TM1
Method in brief: as §1

NCI-H2405 = test system: NCI-H2405
Method in brief: as §1

SK-LU-1 = test system: SK-LU-1
Method in brief: as §1

NCI-H1395 = test system: NCI-H1395
Method in brief: as §1

NCI-H2087 = test system: NCI-H2087
Method in brief: as §1

NCI-H3122 = test system: NCI-H3122
Method in brief: as §1

CAL-12T = test system: CAL-12T
Method in brief: as §1

NCI-H322M = test system: NCI-H322M
Method in brief: as §1

NCI-H1437 = test system: NCI-H1437
Method in brief: as §1

201T = test system: 201T
Method in brief: as §1

BEN = test system: BEN
Method in brief: as §1

NCI-H2023 = test system: NCI-H2023
Method in brief: as §1

NCI-H1793 = test system: NCI-H1793
Method in brief: as §1

NCI-H647 = test system: NCI-H647
Method in brief: as §1

NCI-H2228 = test system: NCI-H2228
Method in brief: as §1

NCI-H727 = test system: NCI-H727
Method in brief: as §1

HOP-62 = test system: HOP-62
Method in brief: as §1

NCI-H1650 = test system: NCI-H1650
Method in brief: as §1

LXF-289 = test system: LXF-289
Method in brief: as §1

RERF-LC-KJ = test system: RERF-LC-KJ
Method in brief: as §1

HCC-44 = test system: HCC-44
Method in brief: as §1

`CC(C)Oc1cc(Nc2nc(N[C@@H](C)c3ccc(F)cn3)ncc2Cl)n[nH]1` [AZ23] + COc1cccc2cc(-c3nc([C@H]4CC[C@H](C(=O)O)CC4)n4ncnc(N)c34)[nH]c12 [OSI-027] (partner 0.5 µM) was tested, and the relative viability (NCI-H1355; first compound 0.01 µM) was 0.401, the relative viability (NCI-H1355; first compound 0.03162 µM) was 0.421 and the relative viability (NCI-H1355; first compound 0.3162 µM) was 0.361. It also gave a relative viability (LCLC-103H; first compound 0.01 µM) of 0.401, a relative viability (LCLC-103H; first compound 0.03162 µM) of 0.505 and a relative viability (LCLC-103H; first compound 0.3162 µM) of 0.535. It also gave a relative viability (HCC-827; first compound 0.01 µM) of 0.78, a relative viability (HCC-827; first compound 0.03162 µM) of 0.793 and a relative viability (HCC-827; first compound 0.3162 µM) of 0.882. It also gave a relative viability (LCLC-97TM1; first compound 0.01 µM) of 0.495, a relative viability (LCLC-97TM1; first compound 0.03162 µM) of 0.519 and a relative viability (LCLC-97TM1; first compound 0.3162 µM) of 0.586. It also gave a relative viability (NCI-H2405; first compound 0.01 µM) of 0.555, a relative viability (NCI-H2405; first compound 0.03162 µM) of 0.667 and a relative viability (NCI-H2405; first compound 0.3162 µM) of 0.614. For the same compound, the relative viability (SK-LU-1; first compound 0.03162 µM) was 0.403, the relative viability (SK-LU-1; first compound 0.3162 µM) was 0.379 and the relative viability (NCI-H1395; first compound 0.03162 µM) was 0.708. It also gave a relative viability (NCI-H1395; first compound 0.3162 µM) of 0.655, a relative viability (NCI-H2087; first compound 0.01 µM) of 0.675 and a relative viability (NCI-H2087; first compound 0.03162 µM) of 0.477. For the same compound, the relative viability (NCI-H2087; first compound 0.3162 µM) was 0.459, the relative viability (NCI-H3122; first compound 0.01 µM) was 1.12 and the relative viability (NCI-H3122; first compound 0.03162 µM) was 1.12. It also gave a relative viability (NCI-H3122; first compound 0.3162 µM) of 1.12, a relative viability (CAL-12T; first compound 0.03162 µM) of 0.593 and a relative viability (CAL-12T; first compound 0.3162 µM) of 0.778. The relative viability (NCI-H322M; first compound 0.03162 µM) was 0.594, the relative viability (NCI-H322M; first compound 0.3162 µM) was 0.521 and the relative viability (NCI-H1437; first compound 0.01 µM) was 0.878. The relative viability (NCI-H1437; first compound 0.03162 µM) was 1.01, the relative viability (NCI-H1437; first compound 0.3162 µM) was 1.05 and the relative viability (201T; first compound 0.01 µM) was 0.504. For the same compound, the relative viability (201T; first compound 0.03162 µM) was 0.827, the relative viability (201T; first compound 0.3162 µM) was 0.728 and the relative viability (BEN; first compound 0.01 µM) was 0.312. The relative viability (BEN; first compound 0.03162 µM) was 0.287, the relative viability (BEN; first compound 0.3162 µM) was 0.268 and the relative viability (NCI-H2023; first compound 0.03162 µM) was 0.373. For the same compound, the relative viability (NCI-H2023; first compound 0.3162 µM) was 0.437, the relative viability (NCI-H1793; first compound 0.01 µM) was 0.226 and the relative viability (NCI-H1793; first compound 0.03162 µM) was 0.303. For the same compound, the relative viability (NCI-H1793; first compound 0.3162 µM) was 0.28, the relative viability (NCI-H647; first compound 0.01 µM) was 0.765 and the relative viability (NCI-H647; first compound 0.03162 µM) was 0.745. For the same compound, the relative viability (NCI-H647; first compound 0.3162 µM) was 0.789, the relative viability (NCI-H2228; first compound 0.01 µM) was 0.785 and the relative viability (NCI-H2228; first compound 0.03162 µM) was 0.776. The relative viability (NCI-H2228; first compound 0.3162 µM) was 0.671, the relative viability (NCI-H727; first compound 0.01 µM) was 0.496 and the relative viability (NCI-H727; first compound 0.03162 µM) was 0.558. It also gave a relative viability (NCI-H727; first compound 0.3162 µM) of 0.605, a relative viability (HOP-62; first compound 0.01 µM) of 0.853 and a relative viability (HOP-62; first compound 0.03162 µM) of 0.924. For the same compound, the relative viability (HOP-62; first compound 0.3162 µM) was 0.973, the relative viability (NCI-H1650; first compound 0.03162 µM) was 0.689 and the relative viability (NCI-H1650; first compound 0.3162 µM) was 0.713. For the same compound, the relative viability (LXF-289; first compound 0.01 µM) was 0.862, the relative viability (LXF-289; first compound 0.03162 µM) was 0.857 and the relative viability (LXF-289; first compound 0.3162 µM) was 0.96. For the same compound, the relative viability (RERF-LC-KJ; first compound 0.01 µM) was 0.592, the relative viability (RERF-LC-KJ; first compound 0.03162 µM) was 0.623 and the relative viability (RERF-LC-KJ; first compound 0.3162 µM) was 0.616. For the same compound, the relative viability (HCC-44; first compound 0.01 µM) was 0.538, the relative viability (HCC-44; first compound 0.03162 µM) was 0.661 and the relative viability (HCC-44; first compound 0.3162 µM) was 0.375.
